Data from patent US20160038518A1, “METHODS FOR TREATING PSORIASIS AND VASCULAR INFLAMMATION” (VASCULAR BIOGENICS LTD., priority 2012, published 2016).
Where two headings read alike, the source gives them in different places.

What was measured:
[1] = system: LPS and Pam3CSK4 signaling; experiment: LPS and Pam3CSK4 signaling in human monocytes; format: cell-based; settings: FIG. 1B
[2] = system: vascular inflammation of carotid arteries and ascending aorta in patients with moderate to severe plaque psoriasis; experiment: 18-FDG PET/CT sub-study of phase 2 trial: vascular inflammation as target to background ratio (TBR); format: in vivo, human; settings: 12 weeks
Source text: This study was a sub-study of the above phase 2, randomized, double-blind, multicenter trial, of patients (aged 18-75) with moderate to severe plaque psoriasis, see also infra at Example 3. […] In addition, patients enrolled into the sub-study had to have the presence or history of one of the following: non-insulin dependent diabetes mellitus (NIDDM), peripheral vascular disease (PVD), smoker, hypertension, ischemic heart disease or cerebrovascular disease; obesity (BMI ≧25), hypercholesterolemia (LDL>160 mg/dL or taking anti-hyperlipidemia treatment), or family history of ischemic heart disease (in brother or father before age 55, in sister or mother before age 65) or at least 40 years of age with a history of psoriasis for at least 7 years. Patients were randomly assigned (1:1:1) to receive VB-201 20 mg, VB-201 80 mg or placebo for 12 weeks. The primary endpoint was the maximum TBR in the most diseased segment (MDS) of an index vessel at 12 weeks (percent change from baseline). The effect of treatment with 20 mg per day and 80 mg per day VB-201 on carotid arteries and ascending aorta inflammation was examined. Inflammation was measured by positron emission computed tomography (PET-CT) to quantify 18-fluorodeoxyglucose (18-FDG) uptake as a target to background ratio (TBR).
[…] imaging was performed following an overnight fast using a PET-CT scanner system with CT attenuation correction. 18-FDG was administered intravenously at a dose of 370 MBq and PET images were acquired approximately 90 minutes after injection. Baseline scans were evaluated and all inflammatory plaques in the left and right carotid arteries and ascending aorta were identified and totaled for each treatment group. PET scans were performed at Harvard Medical School and Massachusetts General Hospital, Boston, Mass., USA and at Translational and Molecular Imaging Institute and Department of Radiology, Mount Sinai School of Medicine, New York, N.Y., USA. All scans were analyzed by a central reader at the Mount Sinai center in New York City. The TBR was calculated from the ratio of the standard uptake values (SUV) of the target compared to background venous activity:
TBR (Target Background Ratio)=Target activity SUVTarget/SUV Background Venous Activity
The baseline and 12-week PET/CT datasets for each patient were structurally co-registered with each other, and FDG uptake was compared across each patient's images within pre-defined sections of the target vessels. For the aorta, measurements were made every 3 mm, starting 1 cm above the aortic valve annulus, continuing to the bottom of the aortic arch. For the right and left carotids, measurements were made every 3 mm, starting at the level of the carotid artery bifurcation, and continuing inferiorly 4 cm into the common carotid artery. Measurements were made in the axial plane by drawing a region of interest (ROI) around the artery wall and the maximum standardized uptake value (SUV) was recorded as the time- and dose-corrected tissue radioactivity divided by body weight. This represented the values for the target tissue. For the carotid arteries, the SUV Mean from the lumen of the jugular vein was used in at least 10 consecutive slices (at least 5 on each side). For the aorta, the background SUVMean from the atrium or SVC was used in at least 10 consecutive slices.
All statistical tests were two-sided with a significance level of 5%, unless specified otherwise, and were performed using SASS Version 9.2. Data was summarized using descriptive statistics (number of patients [N], mean, standard deviation [SD], median, minimum, and maximum).
Subjects were scanned by PET-CT to determine baseline 18-FDG uptake, and those with a TBR of at least 1.6 in either the carotid artery or the ascending aorta were selected. After screening and establishment of a baseline, eligible subjects were randomly assigned to receive 20 mg per day VB-201, 80 mg per day VB-201 or a daily placebo, for a period of 12 weeks. […]

[3] = system: inflammation associated with the breast implants; experiment: 18-FDG PET/CT of a patient with breast implants; format: in vivo, human; settings: one patient, 20 mg/day, 12 weeks, FIG. 6
Protocol: A patient with breast implants was treated with VD-201 at 20 mg/day for 12 weeks. PET-CT scans were done at baseline and at 12 weeks, using positron emission computed tomography (PET/CT) imaging quantifying 18-fluorodeoxyglucose (18-FDG) uptake as a TBR as described in Example 1.

[4] = system: patients with moderate to severe plaque psoriasis; experiment: safety evaluation in the Phase II clinical study; format: in vivo, human
Protocol: The efficacy analyses were performed on the data from a modified intention-to-treat (MITT) population (defined as all patients randomized who received at least one dose of medication and had at least one efficacy evaluation). The safety analyses were performed on all randomized patients who received at least one dose of the drug.

[5] = Protocol: Additional criteria included change in affected body surface area from baseline to week 12, change in PGA score from baseline to week 12, any change relative to baseline PASI score, and change in Patient Psoriasis Global Assessment (PtGA) score from baseline to week 12. Blood samples were taken at weeks 4, 8 and 12, in order to assess VB-201 pharmacokinetics, as well as plasma cytokine levels. Safety of VB-201 administration was evaluated by physical examination, incidence of adverse effects, vital signs, clinical chemistry, hematology, urinalysis and electrocardiograms.
humans = experiment: tolerability of daily dose in human clinical studies; format: in vivo
human CD 14+ monocytes = settings: VB-201 5 μg/ml prior to chemotaxis assay; MCP-1 (50 ng/ml), MIP-1a (50 ng/ml) or RANTES (100 ng/ml); FIG. 1A
[6] = 80 mg group, patients not taking concomitant statins
[7] = patients taking statins (6 on 20 mg and 6 on 80 mg), p=0.01

CCCCCCCCCCCCCCCCOC[C@H](COP(=O)([O-])OCC[N+](C)(C)C)OCCCCC(=O)O [VB-201, 1-hexadecyl-2-(4′-carboxy)butyl-sn-glycero-3-phosphocholine]
inhibition of LPS and Pam3CSK4 signaling [1]: inhibition of LPS and Pam3CSK4 signaling | change from baseline in 18-FDG-PET MDS TBR of the index vessel ([2]; 20 mg/day, p=0.14): −7.3% | mean change from baseline of the maximum TBR in the MDS in the index vessel [2, 6]: −0.39 | percent change from baseline of the maximum TBR in the MDS in the index vessel [2, 6]: −8.84% | change from baseline in 18-FDG-PET MDS TBR of the index vessel ([2]; 80 mg/day, p=0.04): −12.7% | dose response of TBR change across quartiles of VB-201 trough blood levels ([2]; p=0.037, FIG. 5): A dose response was seen | reduction from baseline in vascular inflammation based on PET-CT measure ([2]; VB-201 80 mg group, p=0.04): 12.7% | reduction from baseline in vascular inflammation based on PET-CT measure ([2]; combined VB-201 treated group, p=0.01): 9.8% | inflammation of the ascending aorta (18-FDG uptake) ([2]; one patient with breast implants, 20 mg/day, FIG. 6): inflammation of the aorta in the patient was also reduced | mean change from baseline of the maximum TBR in the MDS in the index vessel [2, 7]: −0.74 | percent change from baseline of the maximum TBR in the MDS in the index vessel [2, 7]: −18.48% | inflammation surrounding the breast implants (18-FDG uptake) [3]: reduced inflammation surrounding the breast implants | severity of diarrhea cases ([4]; 80 mg/day): mild (Grade 1) and transient | diarrhea rate ([4]; 80 mg/day (placebo 6.8%)): 15.3% | safety and tolerability ([4]; PET-CT sub-study, 20 or 80 mg/day, 12 weeks): safe and well tolerated | tolerability ([4]; doses of 20 mg/day and 80 mg/day): well tolerated | overall rate of Serious Adverse Events ([4]; main study, 2 subjects): 1.6% | deaths on therapy ([4]; main study, 12 weeks): No deaths occurred on therapy | related Serious Adverse Events ([4]; main study, 12 weeks): No related Serious Adverse Events were observed | overall rate of discontinuation due to Adverse Events ([4]; on VB-201, 4 subjects): 3.2% | mean VB-201 trough level ([5]; patients in quartile 1): about 0 ng/mL | mean VB-201 trough level ([5]; patients in quartile 4): about 3,640 ng/mL | gastrointestinal events (humans; higher dose (e.g., 160 mg/day) in multiple sub-doses e.g. 12 hours apart, each about 80 mg or less): largely avoided | tolerability (humans; humans, single daily dose): well tolerated up to a dose of about 80 mg/day | gastrointestinal events (G-I intolerance, mainly nausea and vomiting) (humans; larger doses (e.g., 160 mg/day) as a single daily dose): associated with certain gastrointestinal events | human monocyte migration towards chemoattractants (human CD 14+ monocytes): decreases human monocyte migration
